Laboratory results: US9241943B2, “Oxathiazine derivatives as antibacterial and anticancer agents” (GEISTLICH PHARMA AG, priority 2012, dated 2016)
≈ marks a conversion by molar mass, not a printed value.

Legend:
[1] = test system: human glioblastoma bulk cells; details: cited from earlier work
[2] = test system: murine SMA560 glioma cancer stem cells (CSC); assay: Cytotoxicity assay in murine SMA560 glioma cancer stem cells; format: cell-based, mouse; details: for sensitivity of CSCs relative to corresponding glioma bulk cells, based on EC50: murine SMA 560 CSCs vs bulk cells
Procedure: (§1) Tissue samples from high grade gliomas WHO grade IV from newly diagnosed patients (medium age of 54±10 years) were minced mechanically, digested enzymatically and the dissociated cells were filtered. The isolated tumor cells were cultured as bulk cells. Cancer Stem Cells (CSCs) were isolated by the formation of neurospheres under neurosphere conditions (using neurobasal medium) from the murine SMA 560 glioma cell line or from freshly isolated human glioblastoma cells.
(§2) Bulk glioma tumor cells were cultured and incubated with taurolidine or taurultam for 24h or 48h as described previously (Rodak et al., J. Neurosurg. 102, 1055-1068, 2005). CSCs were cultured for 7 days and subsequently exposed to taurolidine, taurultam or temozolamide for 24 hours. The number of remaining adherent cells were stained (crystal violet or Alamar Blue) and quantified by absorbance measurements (540 nm). Cell survival was expressed as the percentage of cells surviving relative to the number of cells surviving in untreated control cultures. The results are given as % killing rate or EC50 as the dose required for half-maximal cytotoxicity.
Mouse CSCs were generated from the SMA560 glioma cell line and cultured for 7 days. The CSCs were treated with the same concentration of taurolidine and taurultam as above and cytotoxicity was determined after 24 hours.

[3] = test system: murine SMA 560 bulk glioma cells; assay: Cytotoxicity assay in murine SMA 560 bulk glioma cells; format: cell-based, mouse
Procedure: as §1
as §2, with “The results are given as % killing rate or EC50 as the dose required for half-maximal cytotoxicity.” left out
The mouse SMA560 glioma cell line was used to provide tumor bulk cells and CSCs. Following incubation of SMA560 bulk cells with various concentrations of taurolidine and taurultam (6.25, 12.5, 25, 50, 100, 200 μg/ml), cytotoxicity was determined after 24 h and 48 h of incubation.

[4] = test system: cancers identified herein; assay: Administration to patients having cancers (Example 5); format: in vivo, human; details: Example 5, written in present tense
[5] = test system: cancer stem cells (CSC) derived from four glioblastoma patients; format: cell-based, human
Procedure: as §1, §2
CSCs were isolated from glioblastoma tissue resected from four patients. The same range of concentrations of taurolidine and taurultam was applied as above and the cytotoxicity was measured after 24 hours of incubation with drug. […]

[6] = measured in patients; cited from earlier work
[7] = test system: human glioma cell line LN-229; assay: Cytotoxicity assay (crystal violet) in LN-229 cells; format: cell-based; details: 24 h, high values correspond to high cell viability
Procedure: Cell lines: The human glioma cell line LN-229 was used as described previously (Rodak et al. 2005) as well as the human colon adenocarcinoma cell line SW480.
Cytotoxicity assay: Dissociated LN-229 cells were seeded into 96-well plates at a density of 10^4 cells per well in 100 μl of culture medium. Approximately 24 h later, when the cells had reached 70-80% confluency, the medium was changed and treatment with compound #2250 (4.0-1000 μg/ml), taurolidine (4.0-1000 μg/ml) or standard medium was started. Triplicate cultures were prepared for each sample. After 24 h of incubation at […], the remaining adherent viable cells were stained using crystal violet as described (Rodack et al. 2005). Cell viability was determined by measuring the absorbancy at 540 nm. The results are expressed as killing rate given by the difference between 100% of cells and percentage of cells surviving. EC50 values correspond to the concentration inducing 50% cell death.

[8] = test system: human glioma cell line LN-229; assay: as above; format: cell-based

O=S1(=O)CCNCN1 [Taurultam, taurultam]
EC50 cytotoxicity [1]: ~50 µg/mL (≈ 367 µM) | EC50 cytotoxicity [2]: 10 µg/mL (≈ 73.4 µM) | sensitivity of CSCs relative to corresponding glioma bulk cells, based on EC50 [2]: ~2 fold | EC50 cytotoxicity [3]: 19.3 µg/mL (≈ 142 µM)

O=S1(=O)CCN(CN2CCS(=O)(=O)OC2)CO1 [B3]
efficacy in treating cancers in patients [4]: effective in treating such cancers

Cn1nnc2c(C(N)=O)ncn2c1=O [Temozolamide, temozolamide]
Cytotoxicity EC50 24 h, Mean ± SD [5]: 68.5 ± 26 µg/mL | peak plasma levels [6]: 13.7 µg/mL

O=S1(=O)CCN(CN2COCCS2(=O)=O)CN1 [B1]
efficacy in treating cancers in patients [4]: effective in treating such cancers

O=S1(=O)CCOCO1 [A3]
efficacy in treating cancers in patients [4]: effective in treating such cancers

O=S1(=O)CCOCN1 [Compound 2250, Tetrahydro1,4,5-oxathiazin-4-dioxid]
OD (absorbance at 540 nm) ([7]; 4 μg/ml): 1.477 | OD (absorbance at 540 nm) ([7]; 8 μg/ml): 1.527 | OD (absorbance at 540 nm) ([7]; 15.5 μg/ml): 1.482 | OD (absorbance at 540 nm) ([7]; 31 μg/ml): 1.482 | OD (absorbance at 540 nm) ([7]; 62.5 μg/ml): 0.372 | OD (absorbance at 540 nm) ([7]; 125 μg/ml): 0.199 | OD (absorbance at 540 nm) ([7]; 250 μg/ml): 0.120 | OD (absorbance at 540 nm) ([7]; 500 μg/ml): 0.141 | OD (absorbance at 540 nm) ([7]; 1000 μg/ml): 0.189 | effect on tumor cell morphology [8]: causes blebbing of tumor cells | efficacy in treating cancers in patients [4]: effective in treating such cancers

CN1COCCS1(=O)=O [Compound 2255]
efficacy in treating cancers in patients [4]: effective in treating such cancers

O=S1(=O)CCNCO1 [A1]
efficacy in treating cancers in patients [4]: effective in treating such cancers

O=S1(=O)CCN(CN2CCS(=O)(=O)NC2)CN1 [Taurolidine, taurolidine]
OD (absorbance at 540 nm) ([7]; 4 μg/ml): 1.530 | OD (absorbance at 540 nm) ([7]; 8 μg/ml): 1.478 | OD (absorbance at 540 nm) ([7]; 15.5 μg/ml): 1.434 | OD (absorbance at 540 nm) ([7]; 31 μg/ml): 1.132 | OD (absorbance at 540 nm) ([7]; 62.5 μg/ml): 0.317 | OD (absorbance at 540 nm) ([7]; 125 μg/ml): 0.305 | OD (absorbance at 540 nm) ([7]; 250 μg/ml): 0.165 | OD (absorbance at 540 nm) ([7]; 500 μg/ml): 0.098 | OD (absorbance at 540 nm) ([7]; 1000 μg/ml): 0.109 | EC50 cytotoxicity [1]: ~50 µg/mL (≈ 176 µM) | sensitivity of CSCs relative to corresponding glioma bulk cells, based on EC50 [2]: about 3 fold | EC50 ([3]; Mus musculus, SMA 560 bulk cells, no major difference between 24 h and 48 h): 34.6 µg/mL (≈ 122 µM)

O=S1(=O)CCOCN1CN1COCCS1(=O)=O [Compound 2245]
efficacy in treating cancers in patients [4]: effective in treating such cancers

O=S1(=O)CCN(CN2CCS(=O)(=O)OC2)CN1 [B2]
efficacy in treating cancers in patients [4]: effective in treating such cancers
